Among the data in US9012412B2, “Dual SGLT1/SGLT2 inhibitors” (Janssen Pharmaceutica NV, priority 2013, dated 2015) are inhibition and IC50 values, retold here.

One assay addresses T1, human SGLT2 (Homo sapiens, UniProt P31639).
T1 construct: expressed in transfected cells
T1 sequence (P31639 1-672): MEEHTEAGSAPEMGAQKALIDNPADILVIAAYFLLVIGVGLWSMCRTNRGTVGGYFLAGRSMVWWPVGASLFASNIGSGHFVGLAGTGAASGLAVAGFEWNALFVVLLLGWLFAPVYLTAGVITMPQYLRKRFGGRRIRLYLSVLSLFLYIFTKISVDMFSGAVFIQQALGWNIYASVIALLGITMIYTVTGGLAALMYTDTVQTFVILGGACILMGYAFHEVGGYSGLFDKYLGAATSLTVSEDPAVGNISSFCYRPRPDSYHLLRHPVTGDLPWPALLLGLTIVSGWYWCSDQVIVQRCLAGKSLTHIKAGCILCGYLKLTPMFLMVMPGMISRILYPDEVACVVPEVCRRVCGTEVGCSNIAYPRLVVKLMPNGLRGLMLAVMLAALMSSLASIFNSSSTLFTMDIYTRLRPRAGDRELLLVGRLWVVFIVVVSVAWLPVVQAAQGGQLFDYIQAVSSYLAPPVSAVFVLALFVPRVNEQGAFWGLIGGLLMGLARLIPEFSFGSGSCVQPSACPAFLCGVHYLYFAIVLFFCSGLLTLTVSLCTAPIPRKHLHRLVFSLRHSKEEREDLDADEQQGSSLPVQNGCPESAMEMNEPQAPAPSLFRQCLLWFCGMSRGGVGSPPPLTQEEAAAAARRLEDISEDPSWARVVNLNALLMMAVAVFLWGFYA
Put plainly: Sodium-dependent 14C-methyl-α-D-glucopyranoside uptake in CHO-K1 cells stably expressing human SGLT2. The assay is classed as cell-based. Particulars: for inhibition at 0.1 µM: compound at 0.1 μM. The protocol: (§1) SGLT1 and SGLT2 were cloned in form of cDNA from human small intestine (Genbank M24847), and from human kidney (Genbank M95549), respectively. Subsequently, each full cDNA was subcloned into pcDNA with each construct's integrity verified through follow-on sequencing. To generate CHO-K1 cells that stably express human SGLT1 or human SGLT2 CHO-K1 cells were transfected using DMRIE-C reagent (Life Technologies, Gaithersburg, Md.). Transfected cells were then selected in the presence of 500 μg/ml of the antibiotic G418 (Gibco-BRL, Grand Island, N.Y.). Individual clones were then characterized using the following cell-based assay for sodium-dependent glucose transport.
(§2) First, cell lines stably expressing human SGLT1 or SGLT2 were seeded at a density of 65,000 cells per well per 200 μl cell culture medium with 10 mM of NaButyrate (Aldrich Catalog No. 30341-0) in a 96-well flat bottom plate (COSTAR, Catalog No. 3903). For human SGLT1 or SGLT2 expressing CHO-K1 cells the culture medium comprised Ham's F-12 (Invitrogen Catalog No. 31765), Fetal Bovine Serum (Invitrogen Catalog No. 16000), G418 (Geneticin, Cellgro Catalog No. 30234-CI), Phlorizidin (Sigma Catalog No. P3449), DPBS (Cellgro Catalog No. 21030-CV), ^14C-methyl-α-D-glucopyranoside (Amersham Catalog No. CFB 76), and Methyl-α-D-glucopyranoside (Sigma Catalog No. M-9376).
(§3) The cells were allowed to incubate for 24 hours. Subsequently, the medium was aspirated from the plates and the cells were washed one time with 150 μl assay buffer and incubate 15 min with another 150 μl assay buffer which comprised 50 mM HEPES pH 7.4, 20 mM Tris Base, 5 mM KCl, 1 mM MgCl2, 1 mM CaCl2, and 137 mM NaCl. After removing the wash buffer, 40 μl assay buffer and 10 μl compound solution was added to each well, which was again allowed to incubate for 10 min.
(§4) Following the 10 min incubation, 10 μl of serial diluted Methyl-α-D-glucopyranoside (Sigma Catalog No. M-9376) containing 0.07 μCi ^14C-methyl-α-D-glucopyranoside (Amersham Catalog No. CFB 76) was added to the appropriate well and allowed to incubate for another 2 hours. ^14C-methyl-α-D-glucopyranoside (Sigma Catalog No. M-9376, St. Louis, Mo.) is a non-metabolizable glucose analog specific for sodium-dependent glucose transporters as previously described by H. Peng and J. E. Lever in “Post-transcriptional regulation of Na+/glucose cotransporter (SGLT1) gene expression in LLC-PK1 cells,” J. Biol. Chem. 270, 20536-42 (1995).
(§5) Next, the plates were twice washed with 150 μl of ice-cold DPBS (Cellgro Catalog No. 21030) that was then completely removed from the plates before adding 50 μl of MicroScint™-20 (Packard Catalog No. 6013621) to each well for a 20 min or longer incubation time.
(§6) Sodium-dependent ^14C-methyl-α-D-glucopyranoside uptake was quantified by measuring radioactivity. Plates were counted in a TopCount (Packard, Meriden, Conn.). Results are reported as the %-inhibition or IC50 value from a representative experiment. Variability for the functional assay was typically within 20%.

For a further assay, the target named is T2, human SGLT1 (Homo sapiens, UniProt P13866).
T2 construct: expressed in transfected cells
T2 sequence (P13866 1-664): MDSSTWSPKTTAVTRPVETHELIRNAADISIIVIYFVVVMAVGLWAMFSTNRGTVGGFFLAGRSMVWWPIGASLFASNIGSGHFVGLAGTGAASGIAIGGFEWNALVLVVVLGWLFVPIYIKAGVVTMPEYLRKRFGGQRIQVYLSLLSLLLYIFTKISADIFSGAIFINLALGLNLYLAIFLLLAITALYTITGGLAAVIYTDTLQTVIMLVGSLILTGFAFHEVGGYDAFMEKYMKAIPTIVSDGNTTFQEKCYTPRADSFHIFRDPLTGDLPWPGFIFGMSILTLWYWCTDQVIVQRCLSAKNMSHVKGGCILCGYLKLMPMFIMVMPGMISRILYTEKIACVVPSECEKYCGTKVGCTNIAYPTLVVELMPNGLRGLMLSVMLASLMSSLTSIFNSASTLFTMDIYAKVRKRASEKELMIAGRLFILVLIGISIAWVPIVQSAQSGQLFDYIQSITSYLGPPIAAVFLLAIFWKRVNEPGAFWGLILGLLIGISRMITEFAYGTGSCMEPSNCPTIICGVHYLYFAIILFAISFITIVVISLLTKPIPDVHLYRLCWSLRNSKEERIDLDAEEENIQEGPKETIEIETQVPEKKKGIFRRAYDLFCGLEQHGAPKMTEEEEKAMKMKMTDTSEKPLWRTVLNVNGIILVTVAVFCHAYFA
As to the kind of experiment: Sodium-dependent 14C-methyl-α-D-glucopyranoside uptake in CHO-K1 cells stably expressing human SGLT1. The assay is classed as cell-based. Particulars: for IC50: 14C-methyl-α-D-glucopyranoside uptake; for inhibition at 0.1 µM: compound at 0.1 μM. The method, then: as §1, §2, §3, §4, §5, §6

As usually defined, the inhibition is the relative decrease from the control value, in per cent. The IC50 is the point on the concentration scale where inhibition reaches its midpoint.

As for `OC[C@@H]1C[C@H](O)[C@@H](O)[C@H](c2cc(Cc3cc4ccccc4s3)c(C(F)(F)F)cc2O)O1` [Cpd 16, (2S,3R,4S,6S)-2-(5-(benzo[b]thiophen-2-ylmethyl)-2-hydroxy-4-(trifluoromethyl)phenyl)-6-(hydroxymethyl)tetrahydro-2H-pyran-3,4-diol], the inhibition at 0.1 µM on human SGLT2 came to 77%. The same compound returned an IC50 at human SGLT1 of 0.24 µM.
As for `C=Cc1cc(O)c([C@@H]2O[C@H](CO)C[C@H](O)[C@H]2O)cc1Cc1cc2ccccc2s1` [Cpd 17, (2S,3R,4S,6S)-2-(5-(benzo[b]thiophen-2-ylmethyl)-2-hydroxy-4-vinylphenyl)-6-(hydroxymethyl)tetrahydro-2H-pyran-3,4-diol], the inhibition at 0.1 µM turned out to be 64% at human SGLT2 and 58% against human SGLT1.
`O=C(c1cc2ccccc2s1)c1cc([C@@H]2O[C@H](CO)C[C@H](O)[C@H]2O)c(O)cc1O` [Cpd 18, benzo[b]thiophen-2-yl(5-((2S,3R,4S,6S)-3,4-dihydroxy-6-(hydroxymethyl)tetrahydro-2H-pyran-2-yl)-2,4-dihydroxyphenyl)methanone]: at 0.3 µM the inhibition on human SGLT2 (compound at 0.3 μM) was 13%. Moreover, 3 µM produced 19% inhibition against human SGLT1 (compound at 3 μM).
As to `Cc1cc(O)c([C@@H]2O[C@H](CO)C[C@H](O)[C@H]2O)cc1Cc1cc2cc(F)ccc2s1` [Cpd 19, (2S,3R,4S,6S)-2-(5-((5-fluorobenzo[b]thiophen-2-yl)methyl)-2-hydroxy-4-methylphenyl)-6-(hydroxymethyl)tetrahydro-2H-pyran-3,4-diol], the 50% inhibitory concentration (IC50) against human SGLT2 (14C-methyl-α-D-glucopyranoside uptake) worked out at 0.041 µM; on human SGLT1 it was 0.22 µM.
For `Cc1cc(O)c([C@@H]2O[C@H](CO)C[C@H](O)[C@H]2O)cc1Cc1cc2cc(Cl)ccc2s1` [Cpd 20, (2S,3R,4S,6S)-2-(5-((5-chlorobenzo[b]thiophen-2-yl)methyl)-2-hydroxy-4-methylphenyl)-6-(hydroxymethyl)tetrahydro-2H-pyran-3,4-diol], the figures for the inhibition at 0.1 µM against human SGLT2 and against human SGLT1 were 84% and 20%, respectively.
With `COc1c(Cc2cc3ccccc3s2)cc([C@@H]2O[C@H](CO)C[C@H](O)[C@H]2O)c(O)c1F` [Cpd 21, (2S,3R,4S,6S)-2-(5-(benzo[b]thiophen-2-ylmethyl)-3-fluoro-2-hydroxy-4-methoxyphenyl)-6-(hydroxymethyl)tetrahydro-2H-pyran-3,4-diol], the inhibition at 0.1 µM against human SGLT2 is 78%; against human SGLT1, 26%.
The corresponding values for `Cc1c(Cc2cc3ccccc3s2)cc([C@@H]2O[C@H](CO)C[C@H](O)[C@H]2O)c(O)c1C` [Cpd 22, (2S,3R,4S,6S)-2-(5-(benzo[b]thiophen-2-ylmethyl)-2-hydroxy-3,4-dimethylphenyl)-6-(hydroxymethyl)tetrahydro-2H-pyran-3,4-diol] are 67% and 39%.
Regarding `COc1c([C@@H]2O[C@H](CO)C[C@H](O)[C@H]2O)cc(Cc2cc3ccccc3s2)c(C)c1C` [Cpd 23, (2S,3R,4S,6S)-2-(5-(benzo[b]thiophen-2-ylmethyl)-2-methoxy-3,4-dimethylphenyl)-6-(hydroxymethyl)tetrahydro-2H-pyran-3,4-diol], the inhibition at 0.1 µM at human SGLT2 worked out at 70%; on human SGLT1 it was 50%.
The like results for `C=CCOc1c([C@@H]2O[C@H](CO)C[C@H](O)[C@H]2O)cc(Cc2cc3ccccc3s2)c(C)c1C` [Cpd 24, (2S,3R,4S,6S)-2-(2-(allyloxy)-5-(benzo[b]thiophen-2-ylmethyl)-3,4-dimethylphenyl)-6-(hydroxymethyl)tetrahydro-2H-pyran-3,4-diol] were, in that order, 40% and 31%.
The corresponding values for `Cc1cc(Br)c([C@@H]2O[C@H](CO)C[C@H](O)[C@H]2O)cc1Cc1cc2ccccc2s1` [Cpd 25, (2S,3R,4S,6S)-2-(5-(benzo[b]thiophen-2-ylmethyl)-2-bromo-4-methylphenyl)-6-(hydroxymethyl)tetrahydro-2H-pyran-3,4-diol] are 47% and 26%.
